Source: patent publication US11046716B2, “Beta-lactamase inhibitors” (priority 2015, dated 2021)

Legend:
[1] = tested on: E. coli expressing the Class A Extended Spectrum Beta-Lactamase (ESBL) CTX-M-15; experiment: Broth microdilution MIC assay with ceftazidime, E. coli CTX-M-15; assay type: cell-based; settings: Fixed CAZ (ceftazidime) 4 μg/mL; E. coli ESBL4 CTX-M-15
Outline: (§1)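 Visual MIC readout of the test compound after 16-20 hours at 37° C, measured in the presence of a constant 4 μg/ml β-lactam. Compound concentrations spanned 16 to 0.125 μg/mL in 2-fold steps in cation-adjusted Mueller Hinton broth.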

[2] = tested on: E. cloacae expressing the Class C P99; experiment: Broth microdilution MIC assay with ceftazidime, E. cloacae P99; assay type: cell-based; settings: Fixed CAZ (ceftazidime) 4 μg/mL; E. cl. 144200 p99 AmpC
Outline: as §1

[3] = tested on: K. pneumoniae expressing the Class A carbapenemase KPC-2; experiment: Broth microdilution MIC assay with meropenem, K. pneumoniae KPC-2; assay type: cell-based; settings: Fixed Mero (meropenem) 4 μg/mL; K. p. 156319 KPC-3
Outline: as §1

SHV-5 = target: T1, SHV-5 (Klebsiella pneumoniae, UniProt P0A3M1); experiment: β-lactamase enzyme inhibition assay, SHV-5 (cefotaxime substrate); assay type: biochemical
T1 construct: made in house; host or cells: E. coli BL21(DE3)
Outline: (§2)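 Native untagged enzymes expressed in E. coli BL21(DE3), purified by cation exchange and gel filtration. Inhibitor preincubated with enzyme 15 min at 37 °C; hydrolysis followed by absorbance: imipenem at 300 nm for KPC-2, cefotaxime at 260 nm for SHV-5. IC50 as concentration halving initial hydrolysis rate versus inhibitor-free wells.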

[4] = tested on: P. aeruginosa expressing the Class B carbapenemase VIM-2; experiment: Broth microdilution MIC assay with meropenem, P. aeruginosa VIM-2; assay type: cell-based; settings: Fixed Mero (meropenem) 4 μg/mL; P. aerug. 2775 VIM-2
Outline: as §1

OXA-48 = OXA-48 (UniProt Q6XEC0); experiment: β-lactamase enzyme inhibition assay, Class D oxacillinase; assay type: biochemical; settings: read-out: OXA-48
[5] = tested on: K. pneumoniae producing the Class D carbapenemase OXA-48; experiment: Broth microdilution MIC assay with meropenem, K. pneumoniae OXA-48; assay type: cell-based; settings: Fixed Mero (meropenem) 4 μg/mL; K. p. 11978 OXA-48
Outline: as §1

[6] = tested on: K. pneumoniae expressing the class A carbapenemase KPC-2 and the class B carbapenemase VIM-4; experiment: Broth microdilution MIC assay with meropenem, K. pneumoniae KPC-2 and VIM-4; assay type: cell-based; settings: Fixed Mero (meropenem) 4 μg/mL; K. p. A-1797 KPC-2 VIM-4
Outline: as §1

AmpC = target: T2, AmpC (Enterobacter cloacae, UniProt P05364); experiment: β-lactamase enzyme inhibition assay, p99 AmpC (nitrocefin substrate); assay type: biochemical
T2 construct: made in house; host or cells: E. coli BL21(DE3)
Outline: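 Native untagged enzymes expressed in E. coli BL21(DE3), purified by cation exchange and gel filtration. Inhibitor preincubated with enzyme 15 min at 37 °C; hydrolysis followed by absorbance. IC50 as concentration halving initial hydrolysis rate versus inhibitor-free wells.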

VIM-2 = target: T3, VIM-2 (Escherichia coli, UniProt Q5U7L7); experiment: β-lactamase enzyme inhibition assay, VIM-2 (nitrocefin substrate); assay type: biochemical; settings: Class B; nitrocefin substrate, 486 nm; read-out: VIM-2
T3 construct: made in house; host or cells: E. coli BL21(DE3)
Outline: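 Nitrocefin hydrolysis, read at 486 nm over 10 min, served as the measure of VIM-2 activity. The enzyme had been incubated with compound for 15 min at 37 °C before 100 μM substrate was added, and IC50 values were fitted from percent inhibition of the initial rate.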

KPC-2 = target: T4, KPC-2 (Klebsiella pneumoniae, UniProt Q9F663); experiment: β-lactamase enzyme inhibition assay, KPC-2 (imipenem substrate); assay type: biochemical; settings: Class A; imipenem substrate, 300 nm; read-out: KPC-2
T4 construct: made in house; host or cells: E. coli BL21(DE3)
Outline: as §2

T4 sequence (Q9F663 25-293, looked up): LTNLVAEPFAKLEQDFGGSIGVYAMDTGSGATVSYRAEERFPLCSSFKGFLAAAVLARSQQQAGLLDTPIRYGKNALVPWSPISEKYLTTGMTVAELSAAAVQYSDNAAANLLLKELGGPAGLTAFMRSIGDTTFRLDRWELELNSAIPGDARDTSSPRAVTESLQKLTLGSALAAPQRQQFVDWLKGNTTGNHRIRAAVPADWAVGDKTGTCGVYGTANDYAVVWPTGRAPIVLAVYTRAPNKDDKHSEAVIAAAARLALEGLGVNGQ
T2 sequence (P05364 21-381): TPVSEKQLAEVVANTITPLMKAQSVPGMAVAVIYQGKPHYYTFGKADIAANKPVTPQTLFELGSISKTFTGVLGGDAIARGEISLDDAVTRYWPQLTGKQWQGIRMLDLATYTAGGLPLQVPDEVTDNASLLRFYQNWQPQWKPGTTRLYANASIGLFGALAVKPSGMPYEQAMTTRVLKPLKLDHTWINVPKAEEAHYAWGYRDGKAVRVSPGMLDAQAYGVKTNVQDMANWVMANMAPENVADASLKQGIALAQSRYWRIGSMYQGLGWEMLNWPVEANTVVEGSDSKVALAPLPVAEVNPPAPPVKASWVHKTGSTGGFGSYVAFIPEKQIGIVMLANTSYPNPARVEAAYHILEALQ
T1 sequence (P0A3M1 22-286): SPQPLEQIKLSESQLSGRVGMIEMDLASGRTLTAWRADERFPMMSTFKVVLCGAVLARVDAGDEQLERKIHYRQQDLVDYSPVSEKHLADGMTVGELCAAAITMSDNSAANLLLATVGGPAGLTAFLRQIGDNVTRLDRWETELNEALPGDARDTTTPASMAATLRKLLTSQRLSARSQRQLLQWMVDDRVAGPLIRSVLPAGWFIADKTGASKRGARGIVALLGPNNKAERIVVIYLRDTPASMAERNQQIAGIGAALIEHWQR

| Structure (SMILES) | MIC (μg/mL) of Exemplary Compounds in presence of fixed β-lactams: E. coli ESBL4 CTX-M-15 [1] | MIC (μg/mL) of Exemplary Compounds in presence of fixed β-lactams: E. cl. 144200 p99 AmpC [2] | MIC (μg/mL) of Exemplary Compounds in presence of fixed β-lactams: K. p. 156319 KPC-3 [3] | IC50 (SHV-5) [nM] | MIC (μg/mL) of Exemplary Compounds in presence of fixed β-lactams: P. aerug. 2775 VIM-2 [4] | IC50 (OXA-48) [nM] | MIC (μg/mL) of Exemplary Compounds in presence of fixed β-lactams: K. p. 11978 OXA-48 [5] | MIC (μg/mL) of Exemplary Compounds in presence of fixed β-lactams: K. p. A-1797 KPC-2 VIM-4 [6] | IC50 (AmpC) [nM] | IC50 (VIM-2) [nM] | IC50 (KPC-2) [nM] |
| --- | --- | --- | --- | --- | --- | --- | --- | --- | --- | --- | --- |
| NCc1nnc(CC(=O)N[C@H]2Cc3cccc(C(=O)O)c3OB2O)s1 [Example 67, (R)-3-(2-(5-(aminomethyl)-1,3,4-thiadiazol-2-yl)acetamido)-2-hydroxy-3,4-dihydro-2H-benzo[e][1,2]oxaborinine-8-carboxylic acid] | C (C represents an MIC of <1 μg/mL) | C (C represents an MIC of <1 μg/mL) | B (B represents an MIC between 1 and 16 μg/mL inclusive) | < 100 | C (C represents an MIC of <1 μg/mL) | 100 to 1000 | B (B represents an MIC between 1 and 16 μg/mL inclusive) | B (B represents an MIC between 1 and 16 μg/mL inclusive) | < 100 | 100 to 1000 | < 100 |
| NCc1cnn(CC(=O)N[C@H]2Cc3cccc(C(=O)O)c3OB2O)c1 [Example 68, (R)-3-(2-(4-(aminomethyl)-1H-pyrazol-1-yl)acetamido)-2-hydroxy-3,4-dihydro-2H-benzo[e][1,2]oxaborinine-8-carboxylic acid] | C (C represents an MIC of <1 μg/mL) | C (C represents an MIC of <1 μg/mL) | C (C represents an MIC of <1 μg/mL) | 100 to 1000 | C (C represents an MIC of <1 μg/mL) | 100 to 1000 | B (B represents an MIC between 1 and 16 μg/mL inclusive) | B (B represents an MIC between 1 and 16 μg/mL inclusive) | < 100 | 100 to 1000 | < 100 |
| NCCS(=O)(=O)NCc1cn(CC(=O)N[C@H]2Cc3cccc(C(=O)O)c3OB2O)nn1 [Example 69, (R)-3-(2-(4-(((2-aminoethyl)sulfonamido)methyl)-1H-1,2,3-triazol-1-yl)acetamido)-2-hydroxy-3,4-dihydro-2H-benzo[e][1,2]oxaborinine-8-carboxylic acid] | C (C represents an MIC of <1 μg/mL) | C (C represents an MIC of <1 μg/mL) | B (B represents an MIC between 1 and 16 μg/mL inclusive) | < 100 | C (C represents an MIC of <1 μg/mL) | 1000 to 10000 | B (B represents an MIC between 1 and 16 μg/mL inclusive) | B (B represents an MIC between 1 and 16 μg/mL inclusive) | < 100 | 100 to 1000 | < 100 |
| Nc1ccc(S(=O)(=O)NCc2cn(CC(=O)N[C@H]3Cc4cccc(C(=O)O)c4OB3O)nn2)cc1 [Example 70, (R)-3-(2-(4-(((4-aminophenyl)sulfonamido)methyl)-1H-1,2,3-triazol-1-yl)acetamido)-2-hydroxy-3,4-dihydro-2H-benzo[e][1,2]oxaborinine-8-carboxylic acid] | C (C represents an MIC of <1 μg/mL) | C (C represents an MIC of <1 μg/mL) | B (B represents an MIC between 1 and 16 μg/mL inclusive) | < 100 | B (B represents an MIC between 1 and 16 μg/mL inclusive) | 100 to 1000 | B (B represents an MIC between 1 and 16 μg/mL inclusive) | B (B represents an MIC between 1 and 16 μg/mL inclusive) | < 100 | 1000 to 10000 | < 100 |
| NCCn1cnc(C(=O)N[C@H]2Cc3cccc(C(=O)O)c3OB2O)n1 [Example 71, (R)-3-(1-(2-aminoethyl)-1H-1,2,4-triazole-3-carboxamido)-2-hydroxy-3,4-dihydro-2H-benzo[e][1,2]oxaborinine-8-carboxylic acid] | C (C represents an MIC of <1 μg/mL) | C (C represents an MIC of <1 μg/mL) | C (C represents an MIC of <1 μg/mL) | 100 to 1000 | C (C represents an MIC of <1 μg/mL) | 10000 to 100000 | A (A represents an MIC>16 μg/mL) | B (B represents an MIC between 1 and 16 μg/mL inclusive) | < 100 | 100 to 1000 | 100 to 1000 |
| NCCn1cnc(C(=O)N[C@H]2Cc3cccc(C(=O)O)c3OB2O)c1 [Example 72, (R)-3-(1-(2-aminoethyl)-1H-imidazole-4-carboxamido)-2-hydroxy-3,4-dihydro-2H-benzo[e][1,2]oxaborinine-8-carboxylic acid] | C (C represents an MIC of <1 μg/mL) | C (C represents an MIC of <1 μg/mL) | C (C represents an MIC of <1 μg/mL) | < 100 | B (B represents an MIC between 1 and 16 μg/mL inclusive) | 100 to 1000 | B (B represents an MIC between 1 and 16 μg/mL inclusive) | B (B represents an MIC between 1 and 16 μg/mL inclusive) | < 100 | 100 to 1000 | < 100 |
| NCCn1cncc1C(=O)N[C@H]1Cc2cccc(C(=O)O)c2OB1O [Example 73, (R)-3-(1-(2-aminoethyl)-1H-imidazole-5-carboxamido)-2-hydroxy-3,4-dihydro-2H-benzo[e][1,2]oxaborinine-8-carboxylic acid] | C (C represents an MIC of <1 μg/mL) | C (C represents an MIC of <1 μg/mL) | B (B represents an MIC between 1 and 16 μg/mL inclusive) | < 100 | C (C represents an MIC of <1 μg/mL) | 100 to 1000 | B (B represents an MIC between 1 and 16 μg/mL inclusive) | B (B represents an MIC between 1 and 16 μg/mL inclusive) | < 100 | 100 to 1000 | < 100 |
